Broadly, the Ki is a measure of affinity in units of concentration, obtained from inhibition or displacement. A low value points to tighter binding.

Ki data for one compound are collected here from BindingDB's records for doi:10.1016/s0960-894x(99)00632-0 (3-Dimensional Pharmaceuticals, 2000).

A short description of this assay: Compound was evaluated for the inhibitory constant against human Serine protease chymotrypsin.

`Cc1cc(OCCC=NNC(=N)N)cc(OS(=O)(=O)c2ccccc2OC(F)(F)F)c1` [3-[((3E)-3-{[(E)-amino(imino)methyl]hydrazono}propyl)oxy]-5-methylphenyl 2-(trifluoromethoxy)benzenesulfonate] showed an inhibitory constant (Ki) of 88 µM.
